Assay results published in patent US20240315994A1, “SMALL MOLECULE MODULATORS OF FERROPTOSIS” (ARPEGGIO BIOSCIENCES, INC., priority 2021, published 2024).

Legend:
recombinant GPX4 protein = biological target: T1, recombinant GPX4 protein (Homo sapiens, UniProt P36969); assay: Intact protein mass spectrometry binding to recombinant GPX4; settings: for binding to recombinant GPX4 in vitro / number of binding events / sites on GPX4 (mass shifts): intact protein mass spectrometry, 2 hours incubation
T1 construct: purchased Cayman Chemical SO960203
T1 sequence (P36969 1-197): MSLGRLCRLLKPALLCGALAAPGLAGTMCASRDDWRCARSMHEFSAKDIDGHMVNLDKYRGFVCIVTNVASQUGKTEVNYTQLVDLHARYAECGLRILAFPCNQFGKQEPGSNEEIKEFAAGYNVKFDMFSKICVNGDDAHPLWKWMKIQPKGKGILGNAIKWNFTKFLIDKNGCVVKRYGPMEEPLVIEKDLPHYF
Source text: To determine whether the five ferroptosis-inducing compounds identified in FIG. 3 and FIG. 4 could function through direct binding and inhibition of GPX4, we tested binding of each compound to recombinant GPX4 protein in vitro by intact protein mass spectrometry. Intact mass analysis is the assessment of a protein's total molecular weight by mass spectrometry without prior digestion or fragmentation of the molecule of interest. Covalent binding of a potential inhibitor to GPX4 can be detected by a shift in the mass of the intact protein. For the intact protein analysis, we used ML162, a well-characterized GPX4 inhibitor (available from Sigma Aldrich), as a positive control. […] Briefly, compounds were incubated with recombinant GPX4 protein in vitro for 2 hours before quenching with trifluoroacetic acid (TFA) and analysis by mass spectroscopy.
To determine whether the ferroptosis-inducing compounds 6666 and 8147 could function through direct binding and inhibition of GPX4, we tested binding of each compound to recombinant GPX4 protein in vitro by intact protein mass spectrometry. Compound 8216 was used as a positive control (see FIG. 6). Briefly, 15 μL of GPX4 protein (Cayman Chemical cat #SO960203]) was incubated with 100 µM of each compound ([…]) and diluted with 25.5 μl of PBS. The incubation was performed at room temperature for 2 hours and then the reaction was quenched with 3 μL of trifluoroacetic acid. Samples were subjected to UPLC coupled to Synapt G2 mass spectrometer to evaluate if binding of the test compound to GPX4 occurs. Binding is evident by a mass shift equivalent to the mass size of the compound minus a chlorine atom plus the mass size of the GPX4 protein, as described by the manufacturer.

[1] = tested on: HMOX1 expression in HT-1080 fibrosarcoma cells; assay: HMOX1 induction by RT-qPCR in HT-1080 cells; type: cell-based; settings: for HMOX1 induction (RT-qPCR): 10 μM or 5 μM, four hours, normalized to ACTB, relative to DMSO
Description: We tested several of our ferroptosis-inducing compounds for their ability to rapidly induce HMOX1 by RT-qPCR. Briefly, HT-1080 fibrosarcoma cells were treated with either 10 µM or 5 µM of compound RSL3, 8216, 1962, 1816, or 3362 for four hours. RNA was isolated and reverse transcribed and HMOX1 expression quantified by qPCR. Each sample was normalized to an ACTB housekeeping gene control and fold change was calculated relative to a DMSO control.
We tested several of the ferroptosis-inducing compounds for their ability to rapidly induce expression of HMOX1. Briefly, HT-1080 fibrosarcoma cells were plated in 6-well dishes 24 hours prior to treatment with 5 μM of 8147, 6047, 3793, Rsl3, 6666 or 8216 with and without the addition of ferrostatin-1 to the media. Cells were harvested from the plate after 4 hours of compound treatment by adding Trizol reagent directly to the plate to lyse the cells and preserve the RNA. RNA was isolated using the Direct-zol 96-well RNA kit (Zymo cat #R2054). Subsequently purity and quantity of RNA in the samples were measured using a Nanodrop (Thermo Fisher cat #ND-ONE-W). RNA samples were normalized to 2 μg and reverse transcribed to cDNA using the Multiscribe High-Capacity Reverse Transcription kit (Thermo Fisher cat #4368814) following manufacturer's instructions. Quantitative real time PCR was carried out in triplicate using SYBR Select Master Mix (Thermo Fisher cat #4472903) following manufacturer's instructions with primers designed against HMOX1 and ActB from IDT. HMOX1 expression levels were normalized to ActB for each sample then fold change was determined against the vehicle control, DMSO.

[2] = tested on: HK-2 kidney epithelial cells; assay: HK-2 kidney epithelial cell viability dose response (Cell Titer Glo); type: cell-based; settings: healthy HK-2 vs cancer HT-1080 cells
Description: To test whether the ferroptosis-inducing compounds 8216 or 1962 display selectivity for cancer cells we performed a dose response study in HK-2 kidney epithelial cells. HK-2 kidney epithelial cells are a non-cancerous cell line that is commonly used as a “healthy” control in ferroptosis experiments. Briefly, HK-2 kidney epithelial cells were plated 24 hours prior to treatment with concentrations of the ferroptosis-inducing compounds 8216 or 1962 ranging from 10 µM to 10 nM. The ferroptosis-inducing compound RSL3 was used as a positive control. As an additional control, we included a non-specific inducer of apoptosis, staurosporine. Cell Titer Glo® was used to read out cell viability after 48 hours of compound exposure. Data was collected in triplicate.
To determine whether the reduction in viability of HK-2 renal epithelial cells exposed to compounds 8216 or 1962 is driven by induction of ferroptosis, we performed dose response curves for each compound in the presence or absence of ferrostatin-1. We also compared the EC50s for each compound between healthy cells (HK-2 renal epithelial cells) and cancer cells (HT-1080 fibrosarcoma cells) to determine a therapeutic window for healthy vs diseased cells. […] Cell Titer Glo® was used to read out cell viability after 48 hours of compound exposure. […]

[3] = tested on: HT-1080 fibrosarcoma cells; assay: Bodipy C-11 lipid peroxidation imaging in HT-1080 cells; type: cell-based; settings: 10 μM, 1 hour, with or without 1.5 μM ferrostatin-1, ferrostatin-1 rescued
Description: Compounds 6666, 6047, […], 8216, and 8147 were also evaluated for inducing lipid peroxidation in HT-1080 fibrosarcoma cells in the presence or absence of 1.5 µM ferrostatin-1. Briefly, HT-1080 fibrosarcoma cells were treated with 10 µM of compound with or without 1.5 μM ferrostatin-1 and incubated at 37° C. for 1 hour. Bodipy C-11 and Hoescht stain were then added to the media, the cells were allowed to incubate for an additional 30 minutes and then were imaged on the Opera Phenix confocal screening system.

Row | SMILES | binding to recombinant GPX4 in vitro (recombinant GPX4 protein) | number of binding events / sites on GPX4 (mass shifts) (recombinant GPX4 protein) | HMOX1 induction (RT-qPCR) [1] | therapeutic window (HK-2 vs HT-1080 EC50 difference) [2] | mass shift of GPX4 (binding) (recombinant GPX4 protein; 100 μM compound, room temperature, 2 hours, UPLC-Synapt G2) | lipid peroxidation (Bodipy C-11 emission shift) [3] | HMOX1 upregulation and rescue by ferrostatin-1 (RT-qPCR) ([1]; 5 μM, 4 hours, with and without ferrostatin-1)
1 | CCCCCN(C(=O)CCl)c1c(N)n(CCCC)c(=O)[nH]c1=O [Compound 1816] | capable of binding GPX4 | display a single mass shift | did not induce HMOX1 |  |  |  | 
2 | O=C(CCl)N1c2ccccc2OC[C@@H]1c1ccccc1 [Compound 1962] | capable of binding GPX4 | can bind GPX4 either 2, 3, or 4 times | did not lead to dose responsive induction of HMOX1 |  |  |  | 
3 | CCOc1ccc(C[C@@H]2c3cc(OCC)c(OCC)cc3CCN2C(=O)CCl)cc1OCC [Compound 3362] |  | bind either 1, 2, or 3 times | results in induction of HMOX1 |  |  |  | 
4 | O=C(CCl)N(Cc1ccc(F)cc1)C1CCCCC1 [Compound 8216] | capable of binding GPX4 | bind either 1, 2, or 3 times | remarkably similar dose-dependent HMOX1 induction | comparable to that of RSL3 | demonstrate a mass shift | shift in emission reflective of lipid peroxidation | upregulation of HMOX1 which was rescued by the addition of ferrostatin-1, to varying degrees
